Format in all cases: cell-based
For one test, the system named is COR-L105. The experiment in a line: CellTiter-Glo proliferation assay, COR-L105. To be noted: Homo sapiens, COR-L105, 120 h, COR-L105, 5 days; for Emax: read-out: COR-L105 Span (max). In a few lines: (§1)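 Both lines grown in RPMI-1640 + 10% FBS. COR-L105 plated flat at 1,000 cells/well overnight; NCI-H1650 grown as spheroids, 3,000 cells/well, 72 h. Compounds at 0.508 nM-10 μM final for 5 days, 37° C. ATP read by CellTiter-Glo (3D version for spheroids); IC50 from variable-slope fit normalized to untreated cells.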

In the next test the target is T1, endogenous BCL-xL (Homo sapiens, UniProt Q07817).
T1 construct: endogenous in cells; host or cells: COR-L105 (ECACC No. 92031918); NCI-H1650 (ATCC No. CRL-5883)
T1 sequence (Q07817 whole entry): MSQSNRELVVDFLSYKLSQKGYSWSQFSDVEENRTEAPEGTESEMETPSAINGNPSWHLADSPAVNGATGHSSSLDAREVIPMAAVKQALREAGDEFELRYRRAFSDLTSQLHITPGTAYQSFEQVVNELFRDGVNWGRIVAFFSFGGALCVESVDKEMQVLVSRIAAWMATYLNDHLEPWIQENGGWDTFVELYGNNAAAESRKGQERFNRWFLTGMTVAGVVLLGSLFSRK
The test is described as follows: Degradation of endogenous BCL-xL in COR-L105 (ProteinSimple Jess). To be noted: COR-L105, 24 h, COR-L105, dose 300 nM, read-out: % BCL-xL vs. Untreated, COR-L105. As for the experimental part: The BCL-xL degrader low molecular weight compounds were tested against two endogenous cancer cell lines: • COR-L105: ECACC No. 92031918 cultured in RPMI-1640+10% FBS • NCI-H1650: (ATCC No. CRL-5883 cultured in RPMI-1640+10% FBS
The ability of the BCL-xL degrader low molecular weight compounds to degrade endogenous BCL-xL was assessed using the ProteinSimple 2-40 kDa Jess Separation Module.
Cell lines were cultured in media that is optimal for their growth at 5% CO2, 37° C. in a tissue culture incubator. Prior to seeding for the degradation assay, the cells were split at least 2 days before the assay to ensure optimal growth density. On the day of seeding, adherent cells were lifted off tissue culture flasks using 0.25% trypsin. Cell viability and cell density were determined using a cell counter (Vi-Cell XR Cell Viability Analyzer, Beckman Coulter). Cells with higher than 85% viability were seeded for the assay.
The COR-L105 and the NCI-H1650 cell line were seeded in 6-well clear TC-treated multiple well plates (Costar® cat. #3516). Cells were seeded at a density of 2,000,000 cells per well in 2.5 mL of standard growth media. Plates were incubated at 5% CO2, 37° C. overnight in a tissue culture incubator. On the day of dosing, BCL-xL degrader low molecular weight compounds and a BCL-xL inhibitor control were prepared at 6× in standard growth media. The prepared drug treatments were then added to the cells resulting in a final concentration of 100-300 nM and a final volume of 3.0 mL per well. A control well of untreated cells was also included in the study. Each drug concentration was tested in singlet. Plates were incubated at 5% CO2, 37° C. for 24 hours in a tissue culture incubator.
After 24 hours, the adherent cells were lifted off tissue culture plates using 0.25% trypsin. Standard growth media was added to quench the trypsin and centrifuged for 5 minutes at 1500 rpm. Cell pellets were washed once with cold PBS and centrifuged for 5 minutes at 1500 rpm. Cells were then washed with 1 mL cold PBS and transferred to a 1.5 mL eppendorf tube. Cells were centrifuged for 10 minutes at ≥10,000 g at 4° C. in a benchtop mini-centrifuge. The entire supernatant was discarded and cells were resuspended thoroughly in 50 μL of RIPA lysis buffer, generated by the manufacturer's protocol (ProteinSimple, Cat. #CBS401: Lysis Kit—RIPA Buffer for Charge Assays). Lysates were incubated on ice for 30 minutes. Following incubation, lysates were spun in a benchtop mini-centrifuge for 15 minutes at full speed at 4° C. Supernatant was carefully transferred to a new eppendorf tube for downstream analysis.
Protein was quantified using a Pierce™ BCA Protein Assay Kit (ThermoFisher, cat #23225) following the manufacturer's instructions. A standard curve was prepared by adding 25 μL of each concentration of reference samples from a Pierce™ Bovine Serum Albumin Standard Pre-Diluted Set (ThermoFisher, cat #23208). Each reference sample was run in duplicate. Testing samples were prepared by diluting cell lysates 1:5 in UltraPure™ DNase/RNase-Free Distilled Water and tested in duplicates of 25 μL each. The BCA working reagent was prepared by addition of 50 parts of BCA Reagent A with 1 part of BCA Reagent B. For each testing well, 200 μL of BCA working reagent was added. The plate was incubated at 37° C. for 30 minutes. A SpectraMax M Series Multi-Mode Microplate Reader was used to measure the absorbance at 562 nm. A standard curve generated by the Pierce™ Bovine Serum Albumin Standard Pre-Diluted Set was used to normalize and calculate the BCA concentration of cell lysates. Only values that fell within the range of the standard curve were accepted for quantification.
The ProteinSimple 2-40 kDa Jess Separation Module was used to detect BCL-xL degradation in treated versus untreated lysates following the manufacturer's instructions (25-Capillary Cartridge, 8 pack, 2-40 kDa, cat #SM W012). […]

A further test relates to NCI-H1650. The experiment in a line: CellTiter-Glo 3D proliferation assay, NCI-H1650 spheroids. To be noted: Homo sapiens, NCI-H1650, 120 h, 5 days; for Emax: read-out: NCI-H1650 Span (Amax). Put shortly: as §1

pIC50: −log10 of the molar value.

In the case of `Cc1ncsc1-c1ccc(CNC(=O)[C@@H]2C[C@@H](O)CN2C(=O)[C@@H](NC(=O)CCCCCCCCCCC(=O)N2CCN(CC#Cc3ccc(OCCCc4sc(N5CCCc6c5nnc(Nc5nc7ccccc7s5)c6C)nc4C(=O)O)c(F)c3)CC2)C(C)(C)C)c(O)c1` [Example 45, 2-(3-(benzo[d]thiazol-2-ylamino)-4-methyl-6,7-dihydropyrido [2,3-c]pyridazin-8(5H)-yl)-5-(3-(2-fluoro-4-(3-(4-(12-(((S)-1-((2S,4R)-4-hydroxy-2-((2-hydroxy-4-(4-methylthiazol-5-yl)benzyl)carbamoyl)pyrrolidin-1-yl)-3,3-dimethyl-1-oxobutan-2-yl)amino)-12-oxododecanoyl)piperazin-1-yl)prop-1-yn-1-yl)phenoxy)propyl)thiazole-4-carboxylic acid], the pIC50 in the test with COR-L105 was 7.17; in the test on NCI-H1650 it was 8.20. The Emax worked out at 83% with COR-L105 and 81.2% with NCI-H1650. In addition, the remaining activity at 0.3 µM on endogenous BCL-xL came out at 40.1%.

On to `Cc1ncsc1-c1ccc([C@H](C)NC(=O)[C@@H]2C[C@@H](O)CN2C(=O)[C@@H](NC(=O)CN(C)CC(=O)N2CCN(CC#Cc3ccc(OCCCc4sc(N5CCCc6c5nnc(Nc5nc7ccccc7s5)c6C)nc4C(=O)O)c(F)c3)CC2)C(C)(C)C)cc1` [Example 36, 2-(3-(benzo[d]thiazol-2-ylamino)-4-methyl-6,7-dihydropyrido [2,3-c]pyridazin-8(5H)-yl)-5-(3-(2-fluoro-4-(3-(4-(N-(2-(((S)-1-((2S,4R)-4-hydroxy-2-(((S)-1-(4-(4-methylthiazol-5-yl)phenyl)ethyl)carbamoyl)pyrrolidin-1-yl)-3,3-dimethyl-1-oxobutan-2-yl)amino)-2-oxoethyl)-N-methylglycyl)piperazin-1-yl)prop-1-yn-1-yl)phenoxy)propyl) thiazole-4-carboxylic acid], for which the negative-log IC50 (pIC50) in the test with COR-L105 is 6.53; in the test with NCI-H1650 it was 7.43. For the same compound, the Emax with COR-L105 turned out to be 94.1%; with NCI-H1650, 68.3%. At endogenous BCL-xL, the remaining activity at 0.3 µM was more than 90%.

Regarding `Cc1ncsc1-c1ccc([C@H](C)NC(=O)[C@@H]2C[C@@H](O)CN2C(=O)[C@@H](NC(=O)C2CC3(C2)CC(C(=O)N2CCN(CC#Cc4ccc(OCCCc5sc(N6CCCc7c6nnc(Nc6nc8ccccc8s6)c7C)nc5C(=O)O)c(F)c4)CC2)C3)C(C)(C)C)cc1` (stereo partly drawn) [Example 41, 2-(3-(benzo[d]thiazol-2-ylamino)-4-methyl-6,7-dihydropyrido [2,3-c]pyridazin-8(5H)-yl)-5-(3-(2-fluoro-4-(3-(4-(6-(((S)-1-((2S,4R)-4-hydroxy-2-(((S)-1-(4-(4-methylthiazol-5-yl)phenyl)ethyl)carbamoyl)pyrrolidin-1-yl)-3,3-dimethyl-1-oxobutan-2-yl)carbamoyl)spiro[3.3]heptane-2-carbonyl)piperazin-1-yl)prop-1-yn-1-yl)phenoxy)propyl) thiazole-4-carboxylic acid], in the test on COR-L105, the pIC50 is 6.66 and the Emax was found to be 88.2%. Also, the remaining activity at 0.3 µM on endogenous BCL-xL is 30.3%. In the test on NCI-H1650, the pIC50 is 8.05 and the Emax turned out to be 106%.

With `Cc1ncsc1-c1ccc([C@H](C)NC(=O)[C@@H]2C[C@@H](O)CN2C(=O)[C@@H](NC(=O)CCCCCCCCN2CCN(CC#Cc3ccc(OCCCc4sc(N5CCCc6c5nnc(Nc5nc7ccccc7s5)c6C)nc4C(=O)O)c(F)c3)CC2)C(C)(C)C)cc1` [Example 52, 2-(3-(benzo[d]thiazol-2-ylamino)-4-methyl-6,7-dihydropyrido [2,3-c]pyridazin-8(5H)-yl)-5-(3-(2-fluoro-4-(3-(4-(9-(((S)-1-((2S,4R)-4-hydroxy-2-(((S)-1-(4-(4-methylthiazol-5-yl)phenyl)ethyl)carbamoyl)pyrrolidin-1-yl)-3,3-dimethyl-1-oxobutan-2-yl)amino)-9-oxononyl)piperazin-1-yl)prop-1-yn-1-yl)phenoxy)propyl)thiazole-4-carboxylic acid], in the test with COR-L105, the pIC50 is 8.00 and the Emax is 80.6%. The remaining activity at 0.3 µM at endogenous BCL-xL was found to be 28.6%. In the test on NCI-H1650, the pIC50 was 8.55 and the Emax turned out to be 60.8%.

With `Cc1ncsc1-c1ccc(CNC(=O)[C@@H]2C[C@@H](O)CN2C(=O)[C@@H](NC(=O)C2(F)CC2)C(C)(C)C)c(OCC(=O)N(C)CCCCCN2CCN(CC#Cc3ccc(OCCCc4sc(N5CCCc6c5nnc(Nc5nc7ccccc7s5)c6C)nc4C(=O)O)c(F)c3)CC2)c1` [Example 54, 2-(3-(benzo[d]thiazol-2-ylamino)-4-methyl-6,7-dihydropyrido [2,3-c]pyridazin-8(5H)-yl)-5-(3-(2-fluoro-4-(3-(4-(5-(2-(2-(((2S,4R)-1-((S)-2-(1-fluorocyclopropane-1-carboxamido)-3,3-dimethylbutanoyl)-4-hydroxypyrrolidine-2-carboxamido)methyl)-5-(4-methylthiazol-5-yl)phenoxy)-N-methylacetamido)pentyl)piperazin-1-yl)prop-1-yn-1-yl)phenoxy)propyl)thiazole-4-carboxylic acid], the pIC50 in the test with COR-L105 is 7.50; in the test on NCI-H1650 it was 8.24. The figures for the Emax in the test with COR-L105 and in the test on NCI-H1650 were 91.9% and 76.7%, respectively. The remaining activity at 0.3 µM at endogenous BCL-xL was determined as 47.9%.

For the compound `Cc1ncsc1-c1ccc([C@H](C)NC(=O)[C@@H]2C[C@@H](O)CN2C(=O)[C@@H](NC(=O)CCC(=O)N2CCN(CCOC34CC5(C)CC(C)(CC(Cn6ncc(-c7ccc(N8CCCc9c8nnc(Nc8nc%10ccccc%10s8)c9C)nc7C(=O)O)c6C)(C5)C3)C4)CC2)C(C)(C)C)cc1` [Example 49, 6-(3-(benzo[d]thiazol-2-ylamino)-4-methyl-6,7-dihydropyrido [2,3-c]pyridazin-8(5H)-yl)-3-(1-(((1r,3s,5R,7S)-3-(2-(4-(4-(((S)-1-((2S,4R)-4-hydroxy-2-(((S)-1-(4-(4-methylthiazol-5-yl)phenyl)ethyl)carbamoyl)pyrrolidin-1-yl)-3,3-dimethyl-1-oxobutan-2-yl)amino)-4-oxobutanoyl)piperazin-1-yl)ethoxy)-5,7-dimethyladamantan-1-yl)methyl)-5-methyl-1H-pyrazol-4-yl)picolinic acid], in the test with COR-L105, the pIC50 was 6.51 and the Emax worked out at 92.1%. On endogenous BCL-xL, the remaining activity at 0.3 µM was more than 90%. In addition, in the test with NCI-H1650, the pIC50 was 7.36 and the Emax stood at 89%.
